Here are results for 15 compounds from patent US12030904B2 (priority 2020, dated 2024).

Where two headings read alike, the source gives them in different places. A value given as a limit tells only on which side of the number the result lay.

One series can be described thus: MT4 cytotoxicity (CC50). The settings on record: human, MT4 cells.
In series [1] the test system is Recombinant Respiratory Syncytial virus strain A2 containing the firefly luciferase reporter (RSV-Fluc). Put plainly: microbe, parasite or virus in culture. The settings on record: human respiratory syncytial virus, NHBE. Type of series: cell-based.
A further series concerns SARS-CoV-2. Put plainly: microbe, parasite or virus in culture. Type of series: cell-based.
A short description of series [2]: A549 cytotoxicity analysis (CellTiter-Glo). Format: cell-based. The settings on record: human, A549 cells. On the procedure: The cytotoxicity of compounds was determined in A549 cells in the following manner. Compounds (40 nL) were spotted onto 384-well Grenier plates prior to seeding 5000 A549 cells/well in a volume of 40 μL culture medium. The plates were incubated at 37° C. for 48 hours with 5% CO2. On day 2, 40 μL of CellTiter-Glo (Promega) was added and mixed 5 times. Plates were read for luminescence on an Envision (PerkinElmer) and the CC50 (compound concentration for reducing 50% of luminescence signal as a measure of cell viability) were calculated using a nonlinear regression model (four parameters). Two experiments were performed with technical duplicates.

Where [3] appears, read: 72 h, read-out: RSV-Fluc EC50 (NHBE), NHBE cells, three days, Table 1.
The mark [4] stands for this setting: Severe acute respiratory syndrome coronavirus 2, 48 h, read-out: SARS-CoV-2 EC50.
[5] abbreviates: Severe acute respiratory syndrome coronavirus 2, read-out: SARS EC50.

The compound `CCCCCCCCCCCCCCCCCCOC[C@H](COP(=O)(O)OC[C@H]1O[C@@](C#N)(c2ccc3c(N)ncnn23)[C@H](O)[C@@H]1O)OCc1ccccc1` [Example 1, ((2R,3S,4R,5R)-5-(4-aminopyrrolo[2,1-f][1,2,4]triazin-7-yl)-5-cyano-3,4-dihydroxytetrahydrofuran-2-yl)methyl ((R)-2-(benzyloxy)-3-(octadecyloxy)propyl) hydrogen phosphate] returned a CC50 in “MT4 cytotoxicity (CC50)” (MT4 CC50, Table 1a) of 3960 nM. In addition, the EC50 in series [1] (setting [3]) came out at 90 nM; in the series on SARS-CoV-2 (setting [4]), 940 nM. In series [2] (48 hours, Table 1), the CC50 at 48 h worked out at 20 µM.

As to `CCCCCCCCCCCCCCCCCCOC[C@@H](COP(=O)(O)OC[C@H]1O[C@@](C#N)(c2ccc3c(N)ncnn23)[C@H](O)[C@@H]1O)OCc1ccccc1` [Example 18, ((2R,3S,4R,5R)-5-(4-aminopyrrolo[2,1-f][1,2,4]triazin-7-yl)-5-cyano-3,4-dihydroxytetrahydrofuran-2-yl)methyl ((S)-2-(benzyloxy)-3-(octadecyloxy)propyl) hydrogen phosphate], the EC50 stood at 110 nM in series [1] (setting [3]) and 320 nM in the series on SARS-CoV-2 (setting [4]). Further, the CC50 at 48 h in series [2] (48 hours, Table 1) was greater than 50 µM.

`CCCCCCCCCCCCCCCCCCCOC[C@H](COP(=O)(O)OC[C@H]1O[C@@](C#N)(c2ccc3c(N)ncnn23)[C@H](O)[C@@H]1O)OCc1cc(F)cc(C#N)c1` [Example 70, ((2R,3S,4R,5R)-5-(4-aminopyrrolo[2,1-f][1,2,4]triazin-7-yl)-5-cyano-3,4-dihydroxytetrahydrofuran-2-yl)methyl ((R)-2-((3-cyano-5-fluorobenzyl)oxy)-3-(nonadecyloxy)propyl) hydrogen phosphate] displayed a CC50 in “MT4 cytotoxicity (CC50)” (MT4 CC50, Table 2a) of 854 nM. Besides, the EC50 in series [1] (72 h, read-out: RSV-Fluc EC50 (NHBE), NHBE cells, three days, Table 2) stood at 60 nM; in series [1] (read-out: RSV EC50, Table 2a) it was 66 nM. Further, half-maximal cytotoxicity in series [2] (Table 3) (CC50 at 48 h) was put at 1.1 µM.

In the series “MT4 cytotoxicity (CC50)” (MT4 CC50, Table 4), `CCCCCCCCCCCCCCOC[C@H](COP(=O)(O)OC[C@H]1O[C@@](C#N)(c2ccc3c(N)ncnn23)[C@H](O)[C@@H]1O)OCc1cc(F)cc(C#N)c1` [Example 117, [(2R,3S,4R,5R)-5-(4-aminopyrrolo[2,1-f][1,2,4]triazin-7-yl)-5-cyano-3,4-dihydroxy-tetrahydrofuran-2-yl]methyl [(2R)-2-[(3-cyano-5-fluoro-phenyl)methoxy]-3-tetradecoxy-propyl] hydrogen phosphate] yielded a CC50 of 473 nM. Moreover, the EC50 in series [1] (read-out: RSV EC50, Table 4) was found to be 15 nM; with SARS-CoV-2 (setting [5]) it was 200 nM.

The compound `CCCCCCCCCCCCCCCOC[C@H](COP(=O)(O)OC[C@H]1O[C@@](C#N)(c2ccc3c(N)ncnn23)[C@H](O)[C@@H]1O)OCc1cc(F)cc(C#N)c1` [Example 118, [(2R,3S,4R,5R)-5-(4-Aminopyrrolo[2,1-f][1,2,4]triazin-7-yl)-5-cyano-3,4-dihydroxy-tetrahydrofuran-2-yl]methyl [(2R)-2-[(3-cyano-5-fluoro-phenyl)methoxy]-3-pentadecoxy-propyl] hydrogen phosphate] came in with a CC50 in “MT4 cytotoxicity (CC50)” (MT4 CC50, Table 4) of 291 nM. The EC50 amounted to 37 nM in series [1] (read-out: RSV EC50, Table 4) and 120 nM in the series with SARS-CoV-2 (setting [5]).

`CCCCCCCCCCCCCCOCCCCOP(=O)(O)OC[C@H]1O[C@@](C#N)(c2ccc3c(N)ncnn23)[C@H](O)[C@@H]1O` [Example 120, [(2R,3S,4R,5R)-5-(4-Aminopyrrolo[2,1-f][1,2,4]triazin-7-yl)-5-cyano-3,4-dihydroxy-tetrahydrofuran-2-yl]methyl 4-tetradecoxybutyl hydrogen phosphate]: in “MT4 cytotoxicity (CC50)” (MT4 CC50, Table 4), it took 12100 nM to reach half-maximal cytotoxicity (CC50). For the same compound, the EC50 in series [1] (read-out: RSV EC50, Table 4) was determined as 224 nM; with SARS-CoV-2 (setting [5]), 10000 nM.

Take `CCCCCCCCCCCCCCCCCOCCCCOP(=O)(O)OC[C@H]1O[C@@](C#N)(c2ccc3c(N)ncnn23)[C@H](O)[C@@H]1O` [Example 121, [(2R,3S,4R,5R)-5-(4-Aminopyrrolo[2,1-f][1,2,4]triazin-7-yl)-5-cyano-3,4-dihydroxy-tetrahydrofuran-2-yl]methyl 4-heptadecoxybutyl hydrogen phosphate]: the midpoint of cytotoxicity in the series “MT4 cytotoxicity (CC50)” (MT4 CC50, Table 4), the CC50, lay at 10400 nM. Besides, the EC50 in series [1] (read-out: RSV EC50, Table 4) turned out to be 262 nM; with SARS-CoV-2 (setting [5]) it was 8900 nM.

In “MT4 cytotoxicity (CC50)” (MT4 CC50, Table 4), `CCCCCCCCCCCCCCCCCCOC[C@H](COP(=O)(O)OC[C@H]1O[C@@](C#N)(c2ccc3c(N)ncnn23)[C@H](O)[C@@H]1O)OCc1cnc(C(F)(F)F)nc1` [Example 122, [(2R,3S,4R,5R)-5-(4-Aminopyrrolo[2,1-f][1,2,4]triazin-7-yl)-5-cyano-3,4-dihydroxy-tetrahydrofuran-2-yl]methyl [(2R)-3-octadecoxy-2-[[2-(trifluoromethyl)pyrimidin-5-yl]methoxy]propyl] hydrogen phosphate] displayed a CC50 of 995 nM. Also, the EC50 is 39 nM in series [1] (read-out: RSV EC50, Table 4) and 450 nM in the series on SARS-CoV-2 (setting [5]).

As to `CCCCCCCCCCCCCCCCCCOC[C@H](COP(=O)(O)OC[C@H]1O[C@@](C#N)(c2ccc3c(N)ncnn23)[C@H](O)[C@@H]1O)OCc1ccc(C(F)(F)F)nc1` [Example 123, [(2R,3S,4R,5R)-5-(4-Aminopyrrolo[2,1-f][1,2,4]triazin-7-yl)-5-cyano-3,4-dihydroxy-tetrahydrofuran-2-yl]methyl [(2R)-3-octadecoxy-2-[[6-(trifluoromethyl)-3-pyridyl]methoxy]propyl] hydrogen phosphate], the midpoint of cytotoxicity in “MT4 cytotoxicity (CC50)” (MT4 CC50, Table 4), the CC50, lay at 1040 nM. Moreover, the EC50 worked out at 55 nM in series [1] (read-out: RSV EC50, Table 4) and 340 nM with SARS-CoV-2 (setting [5]).

As to `CCCCCCCCCCCCCCCCCCOC[C@H](COP(=O)(O)OC[C@H]1O[C@@](C#N)(c2ccc3c(N)ncnn23)[C@H](O)[C@@H]1O)OCc1ccc(C#N)cn1` [Example 124, [(2R,3S,4R,5R)-5-(4-Aminopyrrolo[2,1-f][1,2,4]triazin-7-yl)-5-cyano-3,4-dihydroxy-tetrahydrofuran-2-yl]methyl [(2R)-2-[(5-cyano-2-pyridyl)methoxy]-3-octadecoxy-propyl] hydrogen phosphate], the CC50 in the series “MT4 cytotoxicity (CC50)” (MT4 CC50, Table 4) came to 703 nM. The EC50 is 27 nM in series [1] (read-out: RSV EC50, Table 4) and 200 nM with SARS-CoV-2 (setting [5]).

In turn, `CCCCCCCC/C=C/CCCCCCCCOC[C@H](COP(=O)(O)OC[C@H]1O[C@@](C#N)(c2ccc3c(N)ncnn23)[C@H](O)[C@@H]1O)OCc1cc(F)cc(C#N)c1` [Example 126, ((2R,3S,4R,5R)-5-(4-aminopyrrolo[2,1-f][1,2,4]triazin-7-yl)-5-cyano-3,4-dihydroxytetrahydrofuran-2-yl)methyl ((R)-2-((3-cyano-5-fluorobenzyl)oxy)-3-(((E)-octadec-9-en-1-yl)oxy)propyl) hydrogen phosphate] registered a CC50 in “MT4 cytotoxicity (CC50)” (MT4 CC50, Table 4) of 366 nM. Moreover, the EC50 in series [1] (read-out: RSV EC50, Table 4) was determined as 30 nM; in the series with SARS-CoV-2 (setting [5]), 140 nM.

In turn, `CCCCCCCC/C=C/CCCCCCCCOC[C@H](COP(=O)(O)OC[C@H]1O[C@@](C#N)(c2ccc3c(N)ncnn23)[C@H](O)[C@@H]1O)OCc1ccc(C#N)cc1F` [Example 127, ((2R,3S,4R,5R)-5-(4-aminopyrrolo[2,1-f][1,2,4]triazin-7-yl)-5-cyano-3,4-dihydroxytetrahydrofuran-2-yl)methyl ((R)-2-((4-cyano-2-fluorobenzyl)oxy)-3-(((E)-octadec-9-en-1-yl)oxy)propyl) hydrogen phosphate] came in with a CC50 in the series “MT4 cytotoxicity (CC50)” (MT4 CC50, Table 4) of 3910 nM. For the same compound, the EC50 in series [1] (read-out: RSV EC50, Table 4) is 28 nM; in the series with SARS-CoV-2 (setting [5]), 140 nM.

`CCCCCCCC/C=C\CCCCCCCCOC[C@H](COP(=O)(O)OC[C@H]1O[C@@](C#N)(c2ccc3c(N)ncnn23)[C@H](O)[C@@H]1O)OCc1ccc(C#N)cc1F` [Example 129, ((2R,3S,4R,5R)-5-(4-aminopyrrolo[2,1-f][1,2,4]triazin-7-yl)-5-cyano-3,4-dihydroxytetrahydrofuran-2-yl)methyl ((R)-2-((4-cyano-2-fluorobenzyl)oxy)-3-(((Z)-octadec-9-en-1-yl)oxy)propyl) hydrogen phosphate] came in with a CC50 in the series “MT4 cytotoxicity (CC50)” (MT4 CC50, Table 4) of 2430 nM. The EC50 in series [1] (read-out: RSV EC50, Table 4) came to 22 nM; with SARS-CoV-2 (setting [5]) it was 110 nM.

For `CCCCCCCC/C=C\CCCCCCCCOC[C@H](COP(=O)(O)OC[C@H]1O[C@@](C#N)(c2ccc3c(N)ncnn23)[C@H](O)[C@@H]1O)OCc1ccccc1` [Example 130, ((2R,3S,4R,5R)-5-(4-aminopyrrolo[2,1-f][1,2,4]triazin-7-yl)-5-cyano-3,4-dihydroxytetrahydrofuran-2-yl)methyl ((R)-2-(benzyloxy)-3-(((Z)-octadec-9-en-1-yl)oxy)propyl) hydrogen phosphate], the midpoint of cytotoxicity in “MT4 cytotoxicity (CC50)” (MT4 CC50, Table 4), the CC50, lay at 3560 nM. Besides, the EC50 in series [1] (read-out: RSV EC50, Table 4) is 39 nM; in the series on SARS-CoV-2 (setting [5]), 110 nM.

Consider `CCCCCCCC/C=C/CCCCCCCCOC[C@H](COP(=O)(O)OC[C@H]1O[C@@](C#N)(c2ccc3c(N)ncnn23)[C@H](O)[C@@H]1O)OCc1ccccc1` [Example 131, ((2R,3S,4R,5R)-5-(4-aminopyrrolo[2,1-f][1,2,4]triazin-7-yl)-5-cyano-3,4-dihydroxytetrahydrofuran-2-yl)methyl ((R)-2-(benzyloxy)-3-(((E)-octadec-9-en-1-yl)oxy)propyl) hydrogen phosphate], for which, in the series “MT4 cytotoxicity (CC50)” (MT4 CC50, Table 4), half-maximal cytotoxicity (CC50) was put at 3390 nM. The EC50 in series [1] (read-out: RSV EC50, Table 4) is 39 nM; in the series with SARS-CoV-2 (setting [5]) it was 110 nM.
